Columns and labels:
ALPK1 = target: T1, ALPK1 (Mus musculus, UniProt Q9CXB8); assay: Serum RANTES levels as marker of ALPK1 activation in vivo; design: species or system C57/B6 mice; conditions: 10 nmole subcutaneous, serum at 24 hours or 48 hours, compared to Compound 15
T1 construct: C57/B6 mice (n=3 mice/group) were injected subcutaneously; from tissue; host or cells: whole animal, C57/B6 mice
T1 sequence (Q9CXB8 1-1231): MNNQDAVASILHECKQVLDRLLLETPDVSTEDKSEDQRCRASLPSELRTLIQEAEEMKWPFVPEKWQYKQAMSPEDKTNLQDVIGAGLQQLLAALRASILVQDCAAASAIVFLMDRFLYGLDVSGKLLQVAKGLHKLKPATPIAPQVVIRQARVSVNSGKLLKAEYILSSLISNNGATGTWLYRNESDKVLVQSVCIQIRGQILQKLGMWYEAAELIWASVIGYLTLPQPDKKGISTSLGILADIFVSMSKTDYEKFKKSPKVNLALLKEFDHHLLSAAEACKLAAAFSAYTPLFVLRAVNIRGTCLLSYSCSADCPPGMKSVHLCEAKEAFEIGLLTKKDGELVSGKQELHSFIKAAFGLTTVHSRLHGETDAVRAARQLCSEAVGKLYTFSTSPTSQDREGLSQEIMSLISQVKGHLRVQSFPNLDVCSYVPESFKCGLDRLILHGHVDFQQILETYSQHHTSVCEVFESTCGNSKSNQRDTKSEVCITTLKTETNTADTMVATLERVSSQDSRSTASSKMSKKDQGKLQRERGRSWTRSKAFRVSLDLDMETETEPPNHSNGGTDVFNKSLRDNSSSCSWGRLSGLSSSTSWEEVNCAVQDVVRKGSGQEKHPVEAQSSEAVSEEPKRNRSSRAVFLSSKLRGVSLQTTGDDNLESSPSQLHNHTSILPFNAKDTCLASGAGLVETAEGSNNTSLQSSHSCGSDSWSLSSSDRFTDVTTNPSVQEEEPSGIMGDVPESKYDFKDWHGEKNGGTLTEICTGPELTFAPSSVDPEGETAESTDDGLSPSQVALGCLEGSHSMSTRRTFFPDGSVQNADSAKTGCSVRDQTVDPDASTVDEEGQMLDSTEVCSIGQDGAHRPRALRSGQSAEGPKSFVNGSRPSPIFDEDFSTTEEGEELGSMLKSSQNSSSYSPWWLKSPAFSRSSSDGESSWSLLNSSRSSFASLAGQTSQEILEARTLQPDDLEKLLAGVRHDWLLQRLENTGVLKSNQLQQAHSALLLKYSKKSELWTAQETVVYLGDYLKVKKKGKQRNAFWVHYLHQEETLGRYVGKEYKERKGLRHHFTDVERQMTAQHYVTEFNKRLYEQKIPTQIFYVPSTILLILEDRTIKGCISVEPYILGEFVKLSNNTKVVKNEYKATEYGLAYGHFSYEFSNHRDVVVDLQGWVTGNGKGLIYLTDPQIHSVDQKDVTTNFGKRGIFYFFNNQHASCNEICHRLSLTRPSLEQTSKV
Method: The ability of Compounds 15 and 28 to stimulate ALPK1 activation in vivo was tested by monitoring serum levels of the chemokine RANTES (CCLS), which is elevated upon activation of ALPK1. Briefly, C57/B6 mice (n=3 mice/group) were injected subcutaneously with PBS (negative control) or 10 nmole of Compound 15 or Compound 28. Serum was collected at 24 hours or 48 hours post injection.

HBV = assay: HBV-AAV mouse model; type: in vivo, C57BL/6 mice
Method: Administration of Compound 28 (0.1 mg/kg, twice weekly “BIW”) led to downregulation of HBV DNA expression and a decrease in serum levels of HBsAg, and HBeAg in the HBV-AAV mouse model. At day 1, male C57BL/6 mice were intravenously injected with AAV8-1.3HBV (1×10^11 v/g). After days 28 and 31, each mouse was then intraperitoneally injected with 0.1 mg/kg compound 28 or PBS control. At day 35, mouse serum was collected for HBV DNA qPCR analysis, HBsAg and HBeAg serum analysis by ELISA.

HBsAg, adw = assay: Immunization with HBsAg, adw, specific total IgG serum titers (ELISA); type: in vivo, C57BL/6J mice; conditions: intradermal, adw combined with 1 nmol/dose compound 28, days 0 and 14, sera at day 35
Method: Eight-week-old C57BL/6J mice (females) were intradermally (I.D.) immunized at day 0 with HBsAg, adw (1 mg/dose), or HBsAg, adw at 1 mg/dose combined with compound 28 (1 nmol/dose). Mice were boosted with a second immunization at day 14 and the sera collected at day 35. HBsAg, adw-specific total IgG serum titers (OD450) were determined by ELISA. Anti-HBsAg, adw IgG titers were more than 2× higher when HBsAg, adw was combined with 1 nmol/dose of compound 28 than when HBsAg, adw was injected alone (FIG. 35).

[1] = tested on: eosinophils, dendritic cells, neutrophils; assay: Porcine pancreas elastase (PPE) model, immune cells in bronchoalveolar lavage (flow cytometry); type: in vivo, C57BL/6 mice; conditions: 4 nmol/dose and 20 nmol/dose intraperitoneal on days -1, 0, 1; BAL on day 2
Method: Eight-week-old male C57BL/6 mice were grouped (N=8/group) and were intraperitoneally (I.P.) injected with compound 28 at 0, 4, or 20 nmol/dose on days −1, 0, and 1. In addition, mice were intratracheally (I.Tr.) administrated with 0 or 30 μg/dose of porcine pancreas elastase (PPE) dissolved in 50 μL saline on day 0. Mice were sacrificed on day 2 and the immune cells were collected by bronchoalveolar lavage (BAL). Cells were then subjected to fluorophore-conjugated antibody staining and analyzed by flow cytometry. Data were processed with a FlowJo […] (Treestar) Immune cells were gated as singlets >live cells>CD11c^highSiglecF^lowMHCII^high (dendritic cells), CD11c^lowCD11b^highLy-6G^high (neutrophils), and CD11c^lowCD11b^highLy-6G^lowSiglecF^high (eosinophils).

[2] = 0.1 mg/kg intraperitoneal at days 28 and 31, serum at day 35, ELISA

With `CC(=O)OC[C@H](F)[C@H]1O[C@@H](OP(=O)(O)OP(O)(=S)OC[C@H]2O[C@@H](n3cnc4c(N)ncnc43)[C@H](O)[C@@H]2O)[C@@H](OC(C)=O)[C@@H](OC(C)=O)[C@@H]1OC(C)=O` (stereo partly drawn) [Compound 28, (2S,3S,4S,5S,6S)-2-((S)-2-acetoxy-1-fluoroethyl)-6-(((((((2R,3S,4R,5R)-5-(6-amino-9H-purin-9-yl)-3,4-dihydroxytetrahydrofuran-2-yl)methoxy)(hydroxy)phosphorothioyl)oxy)(hydroxy)phosphoryl)oxy)tetrahydro-2H-pyran-3,4,5-triyl triacetate] the “duration of immune activation (serum RANTES)” value (ALPK1) was “showed a longer duration of immune activation”, the “serum levels of HBeAg” value (HBV; [2]) was “marked decrease” and the “serum levels of HBsAg” value (HBV; [2]) was “marked decrease”. The “HBV DNA expression” value (HBV; 0.1 mg/kg intraperitoneal at days 28 and 31, serum at day 35, qPCR) was “marked decrease”, the “Anti-HBsAg, adw IgG titers relative to HBsAg, adw injected alone” value (HBsAg, adw) was “more than 2 ×” and the “increase in the production of dendritic cells after PPE administration” value [1] was “significantly suppressed”. The “increase in the production of eosinophils after PPE administration” value [1] was “significantly suppressed” and the “increased production of neutrophils after PPE administration” value [1] was “also suppressed but only at the 20 nmol/dose level”.

Reference: patent publication US11840551B2, “Compositions and methods of modulating the immune response by activating alpha protein kinase 1” (Shanghai Yao Yuan Biotechnology Co., Ltd., priority 2017, dated 2023)
